Measurements reported in ChEMBL document CHEMBL4823294, “Discovery of cinnoline derivatives as potent PI3K inhibitors with antiproliferative activity” (Bioorg Med Chem Lett, 2021).
Active and inactive are the calls of the source. The calls are words filed in the database; no cut-off is given here.

Legend:
[1] = molecular target: T1, Phosphatidylinositol 4,5-bisphosphate 3-kinase catalytic subunit delta isoform (Homo sapiens, UniProt O00329); experiment: Inhibition of PI3Kdelta (unknown origin)
T1 sequence (O00329 whole entry): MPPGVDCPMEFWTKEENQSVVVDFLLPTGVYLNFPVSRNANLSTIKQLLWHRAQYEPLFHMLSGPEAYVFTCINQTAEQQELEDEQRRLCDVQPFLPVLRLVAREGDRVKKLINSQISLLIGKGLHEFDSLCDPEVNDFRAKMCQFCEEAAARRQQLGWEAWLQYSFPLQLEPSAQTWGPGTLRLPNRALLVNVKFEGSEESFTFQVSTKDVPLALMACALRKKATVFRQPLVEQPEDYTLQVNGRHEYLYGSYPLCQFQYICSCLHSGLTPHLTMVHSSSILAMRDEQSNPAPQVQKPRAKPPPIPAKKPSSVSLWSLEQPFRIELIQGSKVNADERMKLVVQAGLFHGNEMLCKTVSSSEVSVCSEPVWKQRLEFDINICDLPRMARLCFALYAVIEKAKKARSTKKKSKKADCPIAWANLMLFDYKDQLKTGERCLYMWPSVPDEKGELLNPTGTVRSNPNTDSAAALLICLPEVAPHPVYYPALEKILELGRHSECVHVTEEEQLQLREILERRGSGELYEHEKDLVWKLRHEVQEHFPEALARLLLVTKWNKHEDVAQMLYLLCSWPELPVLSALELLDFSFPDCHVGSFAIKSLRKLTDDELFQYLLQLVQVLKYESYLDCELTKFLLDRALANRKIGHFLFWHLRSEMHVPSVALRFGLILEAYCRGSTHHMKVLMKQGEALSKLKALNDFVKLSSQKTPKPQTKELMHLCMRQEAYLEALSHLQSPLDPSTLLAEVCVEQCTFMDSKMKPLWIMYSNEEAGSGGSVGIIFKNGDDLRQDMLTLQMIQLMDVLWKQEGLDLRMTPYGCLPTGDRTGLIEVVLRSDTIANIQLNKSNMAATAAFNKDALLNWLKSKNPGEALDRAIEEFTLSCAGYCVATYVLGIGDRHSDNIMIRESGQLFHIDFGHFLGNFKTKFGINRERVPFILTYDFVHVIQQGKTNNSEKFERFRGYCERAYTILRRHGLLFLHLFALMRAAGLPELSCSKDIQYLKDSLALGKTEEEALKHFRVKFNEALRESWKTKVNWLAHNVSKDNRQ

[2] = molecular target: Phosphatidylinositol 4,5-bisphosphate 3-kinase catalytic subunit alpha isoform (Homo sapiens, UniProt P42336); experiment: Inhibition of PI3Kalpha (unknown origin)
Phosphatidylinositol 4,5-bisphosphate 3-kinase catalytic subunit alpha isoform, sequence (P42336 whole entry, canonical isoform): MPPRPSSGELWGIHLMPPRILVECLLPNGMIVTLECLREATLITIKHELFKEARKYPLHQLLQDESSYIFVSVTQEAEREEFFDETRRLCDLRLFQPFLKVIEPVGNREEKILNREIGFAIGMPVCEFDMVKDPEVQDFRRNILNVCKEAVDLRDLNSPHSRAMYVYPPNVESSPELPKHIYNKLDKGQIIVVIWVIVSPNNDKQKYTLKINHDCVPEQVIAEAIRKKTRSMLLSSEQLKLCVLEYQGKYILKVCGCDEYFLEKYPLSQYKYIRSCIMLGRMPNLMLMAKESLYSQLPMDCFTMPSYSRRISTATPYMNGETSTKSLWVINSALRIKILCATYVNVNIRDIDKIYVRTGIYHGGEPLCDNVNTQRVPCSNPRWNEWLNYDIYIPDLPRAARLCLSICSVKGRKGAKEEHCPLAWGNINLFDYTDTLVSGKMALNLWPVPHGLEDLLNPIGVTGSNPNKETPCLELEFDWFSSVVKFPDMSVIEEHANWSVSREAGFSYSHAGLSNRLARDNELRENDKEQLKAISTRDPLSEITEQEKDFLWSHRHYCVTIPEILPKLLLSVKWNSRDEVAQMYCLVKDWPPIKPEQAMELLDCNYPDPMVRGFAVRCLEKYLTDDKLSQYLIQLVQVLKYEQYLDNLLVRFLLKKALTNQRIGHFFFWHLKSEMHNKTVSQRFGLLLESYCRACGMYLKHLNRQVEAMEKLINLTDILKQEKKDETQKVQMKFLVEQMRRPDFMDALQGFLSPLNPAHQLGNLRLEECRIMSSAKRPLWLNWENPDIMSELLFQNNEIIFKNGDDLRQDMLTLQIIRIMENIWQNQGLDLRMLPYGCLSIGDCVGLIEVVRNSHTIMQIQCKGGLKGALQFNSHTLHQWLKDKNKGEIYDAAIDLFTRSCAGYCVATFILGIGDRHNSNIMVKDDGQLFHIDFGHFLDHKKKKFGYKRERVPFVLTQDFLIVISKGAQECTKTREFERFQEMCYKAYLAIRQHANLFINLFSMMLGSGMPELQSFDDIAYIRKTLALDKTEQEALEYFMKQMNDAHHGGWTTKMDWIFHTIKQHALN

[3] = molecular target: Phosphatidylinositol 4,5-bisphosphate 3-kinase catalytic subunit gamma isoform (Homo sapiens, UniProt P48736); experiment: Inhibition of PI3Kgamma (unknown origin)
Phosphatidylinositol 4,5-bisphosphate 3-kinase catalytic subunit gamma isoform, sequence (P48736 whole entry, canonical isoform): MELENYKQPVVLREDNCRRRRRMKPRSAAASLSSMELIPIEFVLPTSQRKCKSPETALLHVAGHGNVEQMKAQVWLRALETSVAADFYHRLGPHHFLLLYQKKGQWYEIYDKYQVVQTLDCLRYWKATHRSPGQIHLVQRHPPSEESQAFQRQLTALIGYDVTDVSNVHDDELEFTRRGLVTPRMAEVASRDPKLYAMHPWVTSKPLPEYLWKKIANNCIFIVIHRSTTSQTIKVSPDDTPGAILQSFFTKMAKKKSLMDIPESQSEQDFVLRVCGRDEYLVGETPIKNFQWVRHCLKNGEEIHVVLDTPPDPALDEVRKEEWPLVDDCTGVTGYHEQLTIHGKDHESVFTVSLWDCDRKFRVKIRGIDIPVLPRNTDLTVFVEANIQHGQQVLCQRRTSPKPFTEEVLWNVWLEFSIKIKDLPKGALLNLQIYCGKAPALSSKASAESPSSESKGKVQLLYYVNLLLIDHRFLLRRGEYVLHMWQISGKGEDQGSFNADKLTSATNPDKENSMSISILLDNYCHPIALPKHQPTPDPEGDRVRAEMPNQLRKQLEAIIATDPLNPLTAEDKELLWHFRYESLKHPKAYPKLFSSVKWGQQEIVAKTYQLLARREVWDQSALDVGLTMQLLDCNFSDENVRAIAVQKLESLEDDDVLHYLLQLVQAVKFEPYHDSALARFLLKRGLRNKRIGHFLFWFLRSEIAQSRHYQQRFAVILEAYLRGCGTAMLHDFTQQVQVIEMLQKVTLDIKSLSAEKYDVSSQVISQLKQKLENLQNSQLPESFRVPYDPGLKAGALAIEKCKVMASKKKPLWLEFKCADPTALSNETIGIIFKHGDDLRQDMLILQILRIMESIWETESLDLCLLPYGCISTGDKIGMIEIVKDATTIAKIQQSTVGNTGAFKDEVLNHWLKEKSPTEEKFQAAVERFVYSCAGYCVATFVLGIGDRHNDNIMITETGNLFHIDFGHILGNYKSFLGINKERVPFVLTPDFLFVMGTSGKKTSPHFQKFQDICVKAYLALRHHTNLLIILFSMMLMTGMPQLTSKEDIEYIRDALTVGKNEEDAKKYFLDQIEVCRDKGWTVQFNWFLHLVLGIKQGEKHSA

[4] = molecular target: Phosphatidylinositol 4,5-bisphosphate 3-kinase catalytic subunit beta isoform (Homo sapiens, UniProt P42338); experiment: Inhibition of PI3Kbeta (unknown origin)
Phosphatidylinositol 4,5-bisphosphate 3-kinase catalytic subunit beta isoform, sequence (P42338 whole entry, canonical isoform): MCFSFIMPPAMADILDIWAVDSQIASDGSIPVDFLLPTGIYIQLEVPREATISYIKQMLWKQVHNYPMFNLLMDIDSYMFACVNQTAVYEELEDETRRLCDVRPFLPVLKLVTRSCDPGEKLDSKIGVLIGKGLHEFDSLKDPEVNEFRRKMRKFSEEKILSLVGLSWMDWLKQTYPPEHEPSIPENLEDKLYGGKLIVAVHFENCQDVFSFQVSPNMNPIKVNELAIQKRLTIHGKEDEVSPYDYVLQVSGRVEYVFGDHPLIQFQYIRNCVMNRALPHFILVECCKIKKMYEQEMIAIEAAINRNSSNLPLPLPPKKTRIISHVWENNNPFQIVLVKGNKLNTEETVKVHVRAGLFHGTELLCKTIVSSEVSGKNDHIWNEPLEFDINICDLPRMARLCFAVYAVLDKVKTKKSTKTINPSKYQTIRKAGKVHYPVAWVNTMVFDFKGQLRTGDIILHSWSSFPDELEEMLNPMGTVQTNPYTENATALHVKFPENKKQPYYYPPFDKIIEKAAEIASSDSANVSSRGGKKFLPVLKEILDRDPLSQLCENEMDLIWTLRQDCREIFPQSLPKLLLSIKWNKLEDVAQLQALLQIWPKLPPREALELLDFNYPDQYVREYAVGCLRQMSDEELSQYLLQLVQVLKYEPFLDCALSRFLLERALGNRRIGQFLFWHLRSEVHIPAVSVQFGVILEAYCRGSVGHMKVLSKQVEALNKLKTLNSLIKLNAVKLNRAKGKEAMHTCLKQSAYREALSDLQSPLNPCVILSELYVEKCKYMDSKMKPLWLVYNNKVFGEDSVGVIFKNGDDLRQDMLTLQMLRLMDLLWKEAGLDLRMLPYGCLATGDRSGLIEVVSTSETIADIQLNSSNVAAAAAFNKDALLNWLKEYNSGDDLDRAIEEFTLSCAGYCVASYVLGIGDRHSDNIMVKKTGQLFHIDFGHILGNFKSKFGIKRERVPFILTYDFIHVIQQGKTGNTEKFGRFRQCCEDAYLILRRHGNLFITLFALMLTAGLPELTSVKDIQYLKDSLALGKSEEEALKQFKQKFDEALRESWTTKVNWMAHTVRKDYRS

HeLa = experiment: Antiproliferative activity against human HeLa cells; format: functional, cell-based
A549 = experiment: Antiproliferative activity against human A549 cells; format: functional, cell-based
U-87 MG [5] = experiment: Antiproliferative activity against human U-87 MG cells; format: functional, cell-based, U-87MG ATCC
MCF7 = experiment: Antiproliferative activity against human MCF7 cells; format: functional, cell-based
HepG2 = experiment: Antiproliferative activity against human HepG2 cells; format: functional, cell-based
HL-60 = experiment: Antiproliferative activity against human HL-60 cells; format: functional, cell-based
U-87 MG [6] = experiment: Inhibition of Akt expression in human U-87 MG cells at 5 uM by Western blotting analysis; format: cell-based
U-87 MG [7] = experiment: Inhibition of Akt phosphorylation at Ser473 in human U-87 MG cells at 1 to 5 uM by Western blotting analysis; format: cell-based; settings: dose 1-5 µM
U-87 MG [8] = experiment: Inhibition of Akt expression in human U-87 MG cells at 1 uM by Western blotting analysis; format: cell-based

O=S(=O)(Nc1cc(-c2ccc3nncc(Nc4ccccc4)c3c2)cnc1Cl)c1ccccc1
IC50 [1]: 4.47 nM

O=S(=O)(Nc1cc(-c2ccc3nncc(-c4ccncc4)c3c2)cnc1Cl)c1ccccc1
IC50 [2]: 0.71 nM | IC50 [3]: 2.25 nM | IC50 [4]: 1.7 nM | IC50 [1]: 0.36 nM

O=S(=O)(Nc1cc(-c2ccc3nncc(Cl)c3c2)cnc1Cl)c1ccccc1
IC50 [1]: 0.55 nM

O=S(=O)(Nc1cc(-c2ccc3nncc(N4CCOCC4)c3c2)cnc1Cl)c1ccccc1
IC50 (HeLa): 7700 nM | IC50 [2]: 1.55 nM | IC50 [3]: 4.36 nM | IC50 (A549): > 16600 nM | IC50 (U-87 MG [5]): 2020 nM | IC50 (MCF7): 13100 nM | IC50 [4]: 14.5 nM | IC50 (HepG2): 18300 nM | IC50 (HL-60): > 16600 nM | IC50 [1]: 0.85 nM

O=S(=O)(Nc1cc(-c2ccc3nncc(N4CCCCC4)c3c2)cnc1Cl)c1ccccc1
IC50 [2]: 1.33 nM | IC50 [3]: 3.19 nM | IC50 [4]: 4.6 nM | IC50 [1]: 0.67 nM

O=S(=O)(Nc1cc(-c2ccc3nncc(-c4ccccc4)c3c2)cnc1Cl)c1ccccc1
IC50 [1]: 2.91 nM

CCOc1cnnc2ccc(-c3cnc(Cl)c(NS(=O)(=O)c4ccccc4)c3)cc12
IC50 [2]: 1.78 nM | IC50 [3]: 4.73 nM | IC50 [4]: 5.61 nM | IC50 [1]: 0.4 nM

COc1ncc(-c2ccc3nncc(Nc4ccc(NC(C)=O)cc4)c3c2)cc1NS(=O)(=O)c1ccccc1
IC50 [1]: 8.57 nM

CC(=O)Nc1ccc(Nc2cnnc3ccc(-c4cnc(Cl)c(NS(=O)(=O)c5ccccc5)c4)cc23)cc1
IC50 [1]: 3.3 nM

O=S(=O)(Nc1cc(-c2ccc3nncc(N4CCNCC4)c3c2)cnc1Cl)c1ccccc1
IC50 (HeLa): > 16600 nM | IC50 (A549): > 50000 nM | IC50 (U-87 MG [5]): 589 nM | IC50 (MCF7): > 50000 nM | IC50 (HepG2): > 50000 nM | IC50 (HL-60): > 16600 nM | IC50 [1]: 1.58 nM

C[C@H](Nc1cnnc2ccc(-c3cnc(Cl)c(NS(=O)(=O)c4ccccc4)c3)cc12)c1ccccc1
IC50 [1]: 27 nM

COc1cnnc2ccc(-c3cnc(Cl)c(NS(=O)(=O)c4ccccc4)c3)cc12
IC50 [1]: 1.1 nM

COc1ncc(-c2ccc3nncc(Nc4ccccc4)c3c2)cc1NS(=O)(=O)c1ccccc1
IC50 [1]: 30.3 nM

Oc1cccc(-c2nc(N3CCOCC3)c3oc4ncccc4c3n2)c1 [PI-103]
IC50 (HeLa): 230 nM | IC50 (HL-60): 65.6 nM

C[C@@H](Nc1cnnc2ccc(-c3cnc(Cl)c(NS(=O)(=O)c4ccccc4)c3)cc12)c1ccccc1
IC50 [1]: 5.46 nM

O=S(=O)(Nc1cc(-c2ccc3nncc(-c4ccc(N5CCOCC5)nc4)c3c2)cnc1Cl)c1ccccc1
IC50 [2]: 0.709 nM | IC50 [3]: 1.89 nM | IC50 [4]: 1.54 nM | IC50 [1]: 0.28 nM

CCCCCCOc1cnnc2ccc(-c3cnc(Cl)c(NS(=O)(=O)c4ccccc4)c3)cc12
IC50 [1]: 215 nM

COc1ncc(-c2ccc3nncc(N4CCOCC4)c3c2)cc1NS(=O)(=O)c1ccccc1
IC50 [1]: 4.08 nM

COc1ncc(-c2ccc3nncc(Cl)c3c2)cc1NS(=O)(=O)c1ccccc1
IC50 [1]: 4.42 nM

COc1ccc(CNc2cnnc3ccc(-c4cnc(Cl)c(NS(=O)(=O)c5ccccc5)c4)cc23)cc1
IC50 [1]: 1.02 nM

O=S(=O)(Nc1cc(-c2ccc3nncc(N4CCCC4)c3c2)cnc1Cl)c1ccccc1
IC50 [2]: 2.64 nM | IC50 [3]: 5.97 nM | IC50 [4]: 5.41 nM | IC50 [1]: 0.87 nM

O=S(=O)(Nc1cc(-c2ccc3nncc(-n4ccnc4)c3c2)cnc1Cl)c1ccccc1
IC50 (HeLa): > 50000 nM | IC50 [2]: 1.37 nM | IC50 [3]: 4.02 nM | IC50 (A549): > 50000 nM | IC50 (U-87 MG [5]): 16700 nM | IC50 (MCF7): 39900 nM | IC50 [4]: 2.39 nM | IC50 (HepG2): > 16600 nM | IC50 (HL-60): 2400 nM | IC50 [1]: 0.21 nM

O=S(=O)(Nc1cc(-c2ccc3nnccc3c2)cnc1Cl)c1ccccc1
IC50 [1]: 19.4 nM

O=S(=O)(Nc1cc(-c2ccc3nncc(O)c3c2)cnc1Cl)c1ccccc1
IC50 [1]: 833 nM

O=S(=O)(Nc1cc(-c2ccc3nncc(-c4cnc(N5CCOCC5)nc4)c3c2)cnc1Cl)c1ccccc1
IC50 (HeLa): 2040 nM | IC50 [2]: 0.936 nM | IC50 [3]: 4.42 nM | inhibition (U-87 MG [6]): Active | IC50 (A549): 10100 nM | IC50 (U-87 MG [5]): 264 nM | IC50 (MCF7): 31100 nM | IC50 [4]: 4.72 nM | IC50 (HepG2): > 16600 nM | IC50 (HL-60): 1140 nM | inhibition (U-87 MG [7]): Active | IC50 [1]: 0.65 nM | inhibition (U-87 MG [8]): inactive

O=S(=O)(Nc1cc(-c2ccc3nncc(-c4ccc(N5CCOCC5)cc4)c3c2)cnc1Cl)c1ccccc1
IC50 [2]: 0.711 nM | IC50 [3]: 2.29 nM | IC50 [4]: 3.04 nM | IC50 [1]: 0.4 nM

CC1CCN(c2cnnc3ccc(-c4cnc(Cl)c(NS(=O)(=O)c5ccccc5)c4)cc23)CC1
IC50 [2]: 1.61 nM | IC50 [3]: 3.66 nM | IC50 [4]: 5.33 nM | IC50 [1]: 0.32 nM
